Test results reported in ChEMBL document CHEMBL3885861, “Open TG-GATES”.

Species: Rattus norvegicus
Test: Open TG-GATES - Regimen: Single
Type: toxicity, organism-based, Sprague-Dawley
Parameters: regimen Single, gender Male, age 6 weeks
Conditions: in vivo, po, route gavage; for TP / gamma-GTP / ALP / ALT / AST / BUN / CRE / Ca / Cl / DBIL / GLC / IP / K / LDH / Na / PL / RALB / TBIL / TC / TG: tissue Plasma; for APTT / Bas / Eos / Fbg / Hb / Ht / Lym / MCH / MCHC / MCV / Mono / Neu / PT / Plat / RBC / Ret / WBC: tissue Blood; for KIDNEY_L / KIDNEY_R / KIDNEY_TOTAL: tissue Kidney; for LIVER: tissue Liver
[1] = 300 mg/kg, 24 h, dose level Low
[2] = 1000 mg/kg, 3 h, dose level Middle
[3] = 1000 mg/kg, 6 h, dose level Middle
[4] = 1000 mg/kg, 9 h, dose level Middle
[5] = 1000 mg/kg, 24 h, dose level Middle

SMILES: CCOc1ccc(NC(C)=O)cc1 [PHENACETIN]
- TP [1]: 5.7 g/dL
- gamma-GTP [1]: 1.2 IU/L
- TERMINAL_BW [2]: 211.4 g
- APTT [2]: 16.8 s
- Bas [2]: 0%
- Eos [2]: 1%
- Fbg [2]: 302.8 mg/dL
- Hb [2]: 13.4 g/dL
- Ht [2]: 39.6%
- Lym [2]: 75.6%
- MCH [2]: 20.9 pg
- MCHC [2]: 33.9%
- MCV [2]: 61.6 fL
- Mono [2]: 2.8%
- Neu [2]: 20.4%
- PT [2]: 13.9 s
- Plat [2]: 119.7 x10_4/uL
- RBC [2]: 643.4 x10_4/ul
- Ret [2]: 8.8%
- WBC [2]: 62.5 x10_2/uL
- KIDNEY_L [2]: 0.9 g
- KIDNEY_R [2]: 0.9 g
- KIDNEY_TOTAL [2]: 1.8 g
- LIVER [2]: 9.2 g
- ALP [2]: 1732.2 IU/L
- ALT [2]: 35 IU/L
- AST [2]: 69 IU/L
- BUN [2]: 9.4 mg/dL
- CRE [2]: 0.1 mg/dL
- Ca [2]: 11 mg/dL
- Cl [2]: 100.4 meq/L
- DBIL [2]: 0 mg/dL
- GLC [2]: 232 mg/dL
- IP [2]: 10.8 mg/dL
- K [2]: 3.6 meq/L
- LDH [2]: 64.8 IU/L
- Na [2]: 139.8 meq/L
- PL [2]: 150.8 mg/dL
- RALB [2]: 2.6 g/dL
- TBIL [2]: 0.032 mg/dL
- TC [2]: 87 mg/dL
- TG [2]: 50.6 mg/dL
- TP [2]: 5.5 g/dL
- gamma-GTP [2]: 1.4 IU/L
- TERMINAL_BW [3]: 206.1 g
- APTT [3]: 18 s
- Bas [3]: 0%
- Eos [3]: 0.2%
- Fbg [3]: 311.4 mg/dL
- Hb [3]: 13.9 g/dL
- Ht [3]: 40.7%
- Lym [3]: 73.2%
- MCH [3]: 21.1 pg
- MCHC [3]: 34.2%
- MCV [3]: 61.6 fL
- Mono [3]: 2%
- Neu [3]: 24.2%
- PT [3]: 14.2 s
- Plat [3]: 124.9 x10_4/uL
- RBC [3]: 661 x10_4/ul
- Ret [3]: 9%
- WBC [3]: 54.6 x10_2/uL
- KIDNEY_L [3]: 0.9 g
- KIDNEY_R [3]: 0.9 g
- KIDNEY_TOTAL [3]: 1.9 g
- LIVER [3]: 8.8 g
- ALP [3]: 1388 IU/L
- ALT [3]: 40.4 IU/L
- AST [3]: 76 IU/L
- BUN [3]: 11.2 mg/dL
- CRE [3]: 0.1 mg/dL
- Ca [3]: 10.9 mg/dL
- Cl [3]: 102.6 meq/L
- DBIL [3]: 0 mg/dL
- GLC [3]: 188.4 mg/dL
- IP [3]: 9.8 mg/dL
- K [3]: 4 meq/L
- LDH [3]: 73.6 IU/L
- Na [3]: 139.2 meq/L
- PL [3]: 151.8 mg/dL
- RALB [3]: 2.6 g/dL
- TBIL [3]: 0.04 mg/dL
- TC [3]: 94.2 mg/dL
- TG [3]: 23.4 mg/dL
- TP [3]: 5.6 g/dL
- gamma-GTP [3]: 1.2 IU/L
- TERMINAL_BW [4]: 205.3 g
- APTT [4]: 17.2 s
- Bas [4]: 0%
- Eos [4]: 1%
- Fbg [4]: 302.6 mg/dL
- Hb [4]: 14 g/dL
- Ht [4]: 40.8%
- Lym [4]: 76.2%
- MCH [4]: 21.1 pg
- MCHC [4]: 34.3%
- MCV [4]: 61.4 fL
- Mono [4]: 3.4%
- Neu [4]: 18.6%
- PT [4]: 14.1 s
- Plat [4]: 120 x10_4/uL
- RBC [4]: 664.6 x10_4/ul
- Ret [4]: 8.5%
- WBC [4]: 49.5 x10_2/uL
- KIDNEY_L [4]: 0.9 g
- KIDNEY_R [4]: 0.9 g
- KIDNEY_TOTAL [4]: 1.9 g
- LIVER [4]: 8.8 g
- ALP [4]: 1337.2 IU/L
- ALT [4]: 38.6 IU/L
- AST [4]: 70.2 IU/L
- CRE [4]: 0.1 mg/dL
- Ca [4]: 10.9 mg/dL
- Cl [4]: 101.6 meq/L
- DBIL [4]: 0.006 mg/dL
- GLC [4]: 205.2 mg/dL
- IP [4]: 9 mg/dL
- K [4]: 3.9 meq/L
- LDH [4]: 82 IU/L
- PL [4]: 160.6 mg/dL
- RALB [4]: 2.6 g/dL
- TBIL [4]: 0.046 mg/dL
- TC [4]: 95.2 mg/dL
- TG [4]: 32.6 mg/dL
- TP [4]: 5.6 g/dL
- gamma-GTP [4]: 1.2 IU/L
- TERMINAL_BW [5]: 204.2 g
- APTT [5]: 17 s
- Bas [5]: 0%
- Eos [5]: 1%
- Fbg [5]: 291.6 mg/dL
- Hb [5]: 13.4 g/dL
- Ht [5]: 40.1%
- Lym [5]: 69%
- MCH [5]: 20.5 pg
- MCHC [5]: 33.5%
- MCV [5]: 61.2 fL
- Mono [5]: 3.2%
- Neu [5]: 26.2%
- Plat [5]: 127.8 x10_4/uL
- RBC [5]: 654.4 x10_4/ul
- Ret [5]: 7.5%
- WBC [5]: 82.6 x10_2/uL
- KIDNEY_L [5]: 1 g
- KIDNEY_R [5]: 1 g
- KIDNEY_TOTAL [5]: 1.9 g
- LIVER [5]: 8.7 g
- ALP [5]: 1673.4 IU/L
- ALT [5]: 53.6 IU/L
- AST [5]: 118.8 IU/L
- BUN [5]: 13.6 mg/dL
- CRE [5]: 0.2 mg/dL
- Ca [5]: 10.9 mg/dL
- Cl [5]: 105 meq/L
- DBIL [5]: 0.038 mg/dL
- GLC [5]: 167 mg/dL
- IP [5]: 9.2 mg/dL
- K [5]: 4.6 meq/L
- LDH [5]: 202.2 IU/L
- Na [5]: 141.6 meq/L
- PL [5]: 166.6 mg/dL
- RALB [5]: 2.6 g/dL
- TBIL [5]: 0.052 mg/dL
